{"source": "patent US20040097534A1", "about": "“Composition for the protection and regeneration of nerve cells containing berberine derivatives” (EUGENBIO INC., priority 2001, published 2004)", "key": {"[1]": {"system": "neuromuscular junctions of hindlimb muscles", "test": "Regeneration of nerve endings at neuromuscular junctions after sciatic nerve crush", "format": "in vivo, white rat", "settings": "4 weeks after operation, hindlimb muscle", "from_the_text": "In order to see whether berberine influences the regeneration of nerve endings in the neuromuscular junctions, 4 weeks after operation, hindlimb muscles connected to sciatic nerves were separated and cryosected. The neuromuscular junctions were stained using beta-tubulin isotypeIII and neurofilament, which are nerve markers."}, "HiB5 cells [2]": {"system": "HiB5 cells", "test": "Induction of differentiation of HiB5 cells into nerve cells (neurite count, confocal)", "format": "cell-based, white rat", "settings": "HiB5, berberine, 2 days", "description": "Thereafter, the culture was treated with berberine and further cultured for 2 days. The cultured cells were immunostained with nerve cell-specific labeled molecule, and then the number of cells having neurites longer than cell bodies was counted under a confocal microscope. A positive control was treated with bFGF under the same condition as described above to induce the differentiation into nerve cells. In addition, the neuroregenerative effect was examined after berberine together with bFGF was treated. The differentiation degree was measured by double-staining neurites with nerve cell-specific labeled molecule (anti-neurofilament antibody) and FITC-labeled secondary antibody (green), followed by staining cell nuclei with propidium iodide (red)."}, "white rats": {"system": "white rats", "test": "Toxicity and side effects in vivo", "description": "The dosage for berberine can be varied depending upon known factors, such as age, sex, body weight, disease severity and health condition of the recipient. The daily dosage is commonly in the range of 100 to 150 mg/60 kg of body weight in two or three installments."}, "SH-SY5Y cells": {"system": "SH-SY5Y cells", "test": "MTT assay, SH-SY5Y survival under serum deprivation-induced stress", "format": "cell-based, human", "settings": "for O.D.: 2 days; for Average (O.D. relative to N2): N2 = 100%", "description": "(§1) Cell injuries under condition of serum deprivation-induced stress and oxidative stress were measured by MTT assay. For MTT assay, Cells were seeded into N2 medium in an amount of 7.5×10^3 cells, and then a neurotoxin or a nerve growth factor was added thereto to differentiate the cells and then 0.1 volume of 4 mg/ml MTT was further added. The mixture was stored at 37° C. for 3-4 hours. After 100 μl of solubilization buffer was added to the mixture and then stored for 24 hours, O.D. values were measured by ELISA assay.\nIn order to prepare a stroke-like cell model using SH-SY5Y, the cells were cultured under serum deprivation. […] Retinoic acid, which induces the differentiation of SH-SY5Y as a cell differentiation factor, was used as a positive control. 3 hours before depriving serum, the cells were treated with berberine (0.25˜3 μg). The cells were cultured in chemically defined media (N2) for 2 days to induce nerve regeneration (see, Table 2 and FIG. 4a)."}, "HiB5 cells [3]": {"system": "HiB5 cells", "settings": "for O.D. %: control = 100", "description": "Since HiB5 cells derived from white rat embryonic hippocampus were prepared by retroviral infection of temperature sensitive SV40 large T antigen, they divided at […], but the cell division stopped at 39° C. (body temperature of rat). […] Cell culture medium was prepared by adding a mixture of 10% FBS (fetal bovine serum), penicillin/streptomycin, glutamine and sodium pyruvate (0.11 g/L) to DMEM. On differentiating at 39° C., another cell culture medium was prepared by adding pyruvate to a serum-free medium (N2, containing DMEM/F12, insulin, transferrin, Putreseine and BSA; Botten Stein & Sato., 1979). PC12 cells and SH-SY5Y cells were cultured in DMEM supplemented with 10% FBS. In order to differentiate the cells, NGF or retinoic acid was added to a serum-free medium.\nas §1\nHiB5 cell line used in this experiment was prepared by infecting primary cultured cells of temperature sensitive SV40 large T antigen in rat embryonic hippocampus (embryonic day 16) using retroviral vectors. The HiB5 cell line was divided at the permissive temperature (32° C.), but the cell division stopped at the non-permissive temperature (body temperature of rat: 39° C.). A small number of GABAegic neurons differentiated in the rat embryonic hippocampus (embryonic day 16), and glutamatergic pyramidal cell precursors still divided, some of which penetrated into dentate gyrus regions through dentate migration pathways in embryonic day 18 to differentiate into glutamatergic granule cells (Altman J., Bayer. S. A. (1990a) Prolonged sojourn of developing pyramidal cells in the intermediate zone of the hippocampus and their settling in the stratum pyramidale. J Comp Neurol. 301, 343-64.; Altman J., Das G. D. (1965) Post-natal origin of microneurones in the rat brain, Nature. 28, 953-956.). When cells stop their cell-division and start to differentiate in vivo, apoptosis occurs.\nIn order to evaluate the protective effect of berberine against apoptosis and the effect of increasing cell survival, HiB5 cells were cultured under conditions for initiation of differentiation. At this time, the culture was treated with berberine at various concentrations (50 ng/ml˜6 μg/ml). The protective effect of berberine against apoptosis was measured by MTT assay. A positive control group was treated with bFGF to block apoptosis, increase cell survival and induce the differentiation into nerve cells.\nSince HiB5 neuronal stem cells undergo cell death during the differentiation, the cells were considered as a negative control group. The percentage of O.D. values is determined for the groups treated with bFGF and berberine, respectively."}}, "note": "Entries after “also recorded” stand apart in the source; their conditions may differ. Where two headings read alike, the source gives them in different places."}
{"compound": "COc1ccc2cc3[n+](cc2c1OC)CCc1cc2c(cc1-3)OCO2", "note": "[Berberine, 7,8,13,13a-tetradihydro-9,10-dimethoxy-2,3-(methylenedioxy) berbinium]", "values": [{"measurement": "regeneration of nerve endings / formation of neuromuscular junctions", "setting": "[1]", "value": "spread to all muscle fibers; also recorded: reached all muscle fibers to form neuromuscular junctions"}, {"measurement": "number of cells differentiated into nerve cells, increase", "setting": "HiB5 cells [2]", "value": "increased two times"}, {"measurement": "Number of differentiated cells", "setting": "HiB5 cells [2]; N2 = 3.07", "value": 7.87}, {"measurement": "Average (%) of differentiated cells", "setting": "HiB5 cells [2]; N2 = 14.46", "value": 31.57, "unit": "%"}, {"measurement": "total average cell numbers", "setting": "HiB5 cells [2]; N2 = 22.38", "value": 26.61}, {"measurement": "LD50", "setting": "white rats; intraperitoneally injected", "value": 24.3, "unit": "mg/kg"}, {"measurement": "acute toxicity", "setting": "white rats; white rats", "value": "no acute toxicity"}, {"measurement": "side effects on liver functions", "setting": "white rats; white rats", "value": "no side effects on liver functions"}, {"measurement": "O.D.", "setting": "SH-SY5Y cells; N2 + berberine 0.25 μg/ml", "value": 0.076}, {"measurement": "Average (O.D. relative to N2)", "setting": "SH-SY5Y cells; N2 + berberine 0.25 μg/ml", "value": 113, "unit": "%"}, {"measurement": "O.D.", "setting": "SH-SY5Y cells; N2 + berberine 1.5 μg/ml", "value": 0.118}, {"measurement": "Average (O.D. relative to N2)", "setting": "SH-SY5Y cells; N2 + berberine 1.5 μg/ml", "value": 177, "unit": "%"}, {"measurement": "O.D.", "setting": "SH-SY5Y cells; N2 + berberine 3 μg/ml", "value": 0.104}, {"measurement": "Average (O.D. relative to N2)", "setting": "SH-SY5Y cells; N2 + berberine 3 μg/ml", "value": 155, "unit": "%"}, {"measurement": "cell survival", "setting": "SH-SY5Y cells; serum deprivation, berberine 3 μg/ml compared with 1.5 μg/ml", "value": "somewhat decreased"}, {"measurement": "cell survival rate versus control group", "setting": "SH-SY5Y cells; serum deprivation, berberine (1.5 μg/ml elsewhere in the source)", "value": "two times higher"}, {"measurement": "O.D. %", "setting": "HiB5 cells [3]; 50 ng", "value": 99, "unit": "%"}, {"measurement": "O.D. %", "setting": "HiB5 cells [3]; 100 ng", "value": 103, "unit": "%"}, {"measurement": "O.D. %", "setting": "HiB5 cells [3]; 250 ng", "value": 111, "unit": "%"}, {"measurement": "O.D. %", "setting": "HiB5 cells [3]; 500 ng", "value": 140, "unit": "%"}, {"measurement": "O.D. %", "setting": "HiB5 cells [3]; 700 ng", "value": 154, "unit": "%"}, {"measurement": "O.D. %", "setting": "HiB5 cells [3]; 1 μg", "value": 153, "unit": "%"}, {"measurement": "O.D. %", "setting": "HiB5 cells [3]; 1.5 μg", "value": 162, "unit": "%"}, {"measurement": "O.D. %", "setting": "HiB5 cells [3]; 2 μg", "value": 173, "unit": "%"}, {"measurement": "O.D. %", "setting": "HiB5 cells [3]; 2.5 μg", "value": 185, "unit": "%"}, {"measurement": "O.D. %", "setting": "HiB5 cells [3]; 3 μg", "value": 190, "unit": "%"}, {"measurement": "O.D. %", "setting": "HiB5 cells [3]; 4 μg", "value": 189, "unit": "%"}, {"measurement": "O.D. %", "setting": "HiB5 cells [3]; 5 μg", "value": 191, "unit": "%"}, {"measurement": "O.D. %", "setting": "HiB5 cells [3]; 6 μg", "value": 190, "unit": "%"}, {"measurement": "cell survival rate / protective effect against apoptosis, increase over control", "setting": "HiB5 cells [3]; HiB5 under differentiation conditions, MTT", "value": "about two times"}, {"measurement": "cell survival rate", "setting": "HiB5 cells [3]; berberine 250˜500 ng/ml", "value": "somewhat increased"}, {"measurement": "cytotoxicity", "setting": "HiB5 cells [3]; berberine up to 6 μg/ml", "value": "no cytotoxicity"}]}
